System: 12 single or co-culture in vitro tissue models of primary cells
Assay: Culture/co-culture cell model panel, extracellular biomarkers (DiscoveRx); as to CCL2/MCP-1: reference of the scale not given here; as to CD141/Thrombomodulin: reference of the scale not given here; as to CD142/Tissue Factor: reference of the scale not given here; as to CD38: reference of the scale not given here; as to CD40: reference of the scale not given here; as to CD69: reference of the scale not given here; as to CXCL8/IL-8: reference of the scale not given here; as to CXCL9/MIG: reference of the scale not given here; as to IL-1alpha: reference of the scale not given here; as to M-CSF: reference of the scale not given here; as to PBMC Cytotoxicity: reference of the scale not given here; as to SRB: reference of the scale not given here; as to sPGE2: reference of the scale not given here; as to sTNF-alpha: reference of the scale not given here
Format: cell-based, human
[1] = HDF3CGF stimulated fibroblasts, 1.00E3 nM
[2] = HDF3CGF stimulated fibroblasts, 1.00E4 nM
[3] = HPNo Huvec+PBMC unstimulated, 1.00E0 nM
[4] = HPNo Huvec+PBMC unstimulated, 1.00E1 nM
[5] = HPNo Huvec+PBMC unstimulated, 1.00E2 nM
[6] = HPNo Huvec+PBMC unstimulated, 1.00E3 nM
[7] = HPNo Huvec+PBMC unstimulated, 1.00E4 nM

## Cn1ncc2cc(-c3cnc(N)c(Cl)c3N3CCC4(CCNC4=O)CC3)ccc21 [CMPD 3]
[1]
  EGFR: -0.071
  M-CSF: -0.083
  MMP-1: 0.021
  PAI-I: -0.046
  Proliferation_72hr: -0.287
  SRB: -0.024
  TIMP-1: -0.058
  TIMP-2: 0.170
[2]
  CCL2/MCP-1: -0.120
  CD54/ICAM-1: -0.048
  CD106/VCAM-1: 0.030
  CXCL8/IL-8: -0.092
  CXCL9/MIG: -0.077
  CXCL10/IP-10: 0.009
  CXCL11/I-TAC: -0.045
  Collagen I: 0.097
  Collagen III: 0.0018
  EGFR: 0.023
  M-CSF: -0.150
  MMP-1: 0.056
  PAI-I: -0.210
  Proliferation_72hr: -0.515
  SRB: -0.209
  TIMP-1: -0.045
  TIMP-2: 0.276
[3]
  CCL2/MCP-1: 0.009
  CD38: 0.004
  CD40: -0.028
  CD106/VCAM-1: 0.042
  CD141/Thrombomodulin: 0.010
  CD142/Tissue Factor: 0.089
[4]
  CCL2/MCP-1: 0.017
  CD38: -0.049
  CD40: -0.059
  CD106/VCAM-1: 0.134
  CD141/Thrombomodulin: -0.016
  CD142/Tissue Factor: 0.039
[5]
  CCL2/MCP-1: 0.001
  CD38: -0.011
  CD40: -0.067
  CD106/VCAM-1: 0.206
  CD141/Thrombomodulin: 0.008
  CD142/Tissue Factor: 0.039
[6]
  CCL2/MCP-1: -0.049
  CD38: -0.041
  CD40: -0.024
  CD106/VCAM-1: 0.098
  CD141/Thrombomodulin: 0.007
  CD142/Tissue Factor: 0.007
[7]
  CCL2/MCP-1: -0.004
  CD38: -0.070
  CD40: -0.022
  CD106/VCAM-1: 0.069
  CD141/Thrombomodulin: 0.032
  CD142/Tissue Factor: -0.024
HPNo, 1.00E0 nM
  CD69: -0.011
  CXCL8/IL-8: 0.034
  CXCL9/MIG: 0.060
  M-CSF: 0.037
  SRB: -0.058
  sPGE2: 0.025
  sTNF-alpha: 0.138
HPNo, 1.00E1 nM
  CD69: -0.011
  CXCL8/IL-8: 0.00458
  CXCL9/MIG: 0.092
  M-CSF: 0.011
  SRB: -0.00131
  sPGE2: 0.022
  sTNF-alpha: 0.068
HPNo, 1.00E2 nM
  CD69: 0.017
  CXCL8/IL-8: -0.00647
  CXCL9/MIG: 0.045
  M-CSF: -0.043
  SRB: 0.006
  sPGE2: 0.139
  sTNF-alpha: 0.492
HPNo, 1.00E3 nM
  CD69: -0.017
  CXCL8/IL-8: -0.012
  CXCL9/MIG: 0.014
  M-CSF: -0.056
  SRB: 0.008
  sPGE2: 0.056
  sTNF-alpha: -0.00633
HPNo, 1.00E4 nM
  CD69: 0.004
  CXCL8/IL-8: -0.002
  CXCL9/MIG: -0.052
  M-CSF: -0.079
  SRB: -0.058
  sPGE2: 0.016
  sTNF-alpha: 0.025
LPS Huvec+PBMC, 1.00E0 nM
  CCL2/MCP-1: 0.009
  CD40: -0.011
  CD69: 0.028
  CD106/VCAM-1: 0.028
  CD141/Thrombomodulin: 0.019
  CD142/Tissue Factor: 0.057
  CXCL8/IL-8: 0.020
  IL-1alpha: 0.064
  M-CSF: 0.051
  SRB: -0.018
  sPGE2: 0.033
  sTNF-alpha: 0.017
LPS Huvec+PBMC, 1.00E1 nM
  CCL2/MCP-1: -0.00212
  CD40: -0.078
  CD69: -0.00157
  CD106/VCAM-1: 0.056
  CD141/Thrombomodulin: 0.042
  CD142/Tissue Factor: 0.050
  CXCL8/IL-8: -0.028
  IL-1alpha: -0.012
  M-CSF: -0.018
  SRB: -0.053
  sPGE2: 0.128
  sTNF-alpha: 0.024
LPS Huvec+PBMC, 1.00E2 nM
  CCL2/MCP-1: -0.069
  CD40: -0.092
  CD69: 0.048
  CD106/VCAM-1: 0.047
  CD141/Thrombomodulin: 0.046
  CD142/Tissue Factor: 0.071
  CXCL8/IL-8: -0.091
  IL-1alpha: -0.007
  M-CSF: -0.020
  SRB: -0.076
  sPGE2: 0.096
  sTNF-alpha: 0.028
LPS Huvec+PBMC, 1.00E3 nM
  CCL2/MCP-1: -0.112
  CD40: -0.089
  CD69: 0.015
  CD106/VCAM-1: 0.022
  CD141/Thrombomodulin: 0.052
  CD142/Tissue Factor: 0.071
  CXCL8/IL-8: -0.169
  IL-1alpha: -0.064
  M-CSF: -0.008
  SRB: -0.082
  sPGE2: 0.040
  sTNF-alpha: -0.030
LPS Huvec+PBMC, 1.00E4 nM
  CCL2/MCP-1: -0.187
  CD40: -0.133
  CD69: -0.043
  CD106/VCAM-1: 0.00362
  CD141/Thrombomodulin: 0.038
  CD142/Tissue Factor: 0.121
  CXCL8/IL-8: -0.222
  IL-1alpha: -0.226
  M-CSF: -0.022
  SRB: -0.142
  sPGE2: 0.008
  sTNF-alpha: -0.328
SAg, 1.00E0 nM
  CCL2/MCP-1: 0.030
  CD38: 0.023
  CD40: -0.041
  CD69: 0.00162
  CXCL8/IL-8: 0.064
  CXCL9/MIG: 0.013
  PBMC Cytotoxicity: 0.039
  Proliferation: 0.019
  SRB: -0.013
SAg, 1.00E1 nM
  CCL2/MCP-1: -0.016
  CD38: -0.043
  CD40: -0.128
  CD69: 0.037
  CXCL8/IL-8: -0.047
  CXCL9/MIG: -0.015
  PBMC Cytotoxicity: 0.014
  Proliferation: 0.030
  SRB: -0.033
SAg, 1.00E2 nM
  CCL2/MCP-1: -0.038
  CD38: -0.050
  CD40: -0.143
  CD69: 0.053
  CXCL8/IL-8: -0.167
  CXCL9/MIG: -0.040
  PBMC Cytotoxicity: 0.014
  Proliferation: 0.018
  SRB: -0.052
SAg, 1.00E3 nM
  CCL2/MCP-1: -0.092
  CD38: -0.050
  CD40: -0.108
  CD69: 0.059
  CXCL8/IL-8: -0.271
  CXCL9/MIG: -0.072
  PBMC Cytotoxicity: -0.014
  Proliferation: 0.007
  SRB: -0.055
SAg, 1.00E4 nM
  CCL2/MCP-1: -0.171
  CD38: -0.109
  CD40: -0.222
  CD69: -0.076
  CXCL8/IL-8: -0.221
  CXCL9/MIG: -0.086
  PBMC Cytotoxicity: -0.027
  Proliferation: -0.217
  SRB: -0.150

Source: paper PMC5224920, “Assessing the mechanism and therapeutic potential of modulators of the human Mediator complex-associated protein kinases” (eLife, 2016)
